In brackets after ≈: the same amount, converted by molar mass. Starred links: 1 amine or outer side, 2 acyl side, 3 side chain; linkers in the order of their positions; H or OH if unused. Positions of bridges follow the written chain, without caps; N, C: chain ends. Non-standard residues stand in square brackets, D forms with d. Residues, ends and D or L forms follow the SMILES beside them. Chains are numbered I, II in the order given. Actinocin(9to1) = Cc1c2oc3c(C)ccc(C(=O)[*:1])c3nc-2c(C(=O)[*:2])c(N)c1=O; NMeV = CN[C@H](C(=O)O)C(C)C; Sar = CNCC(=O)O

Experiment [1] concerns sarcoma 180 ascites tumor. Put plainly: Effects on sarcoma 180 ascites tumor (Test III). It counts as in vivo, mouse. The settings on record: for Rating / T/C (%): Table III, i.p.; for T/C (%): TPCV ratio. The protocol: A portion of each of the extraction fractions was suspended or dissolved in 0.5% suspension of carboxymethylcellulose (CMC) in a phosphate buffer saline solution (PBS commercially available from GIBCO Laboratories, containing ca. 9.5 mM phosphate) to a predetermined concentration.
Mouse sarcoma 180 tumor cells which have been subcultivated intraperitoneally in ICR mice were drawn from the mouse together with the ascites and diluted with physiological saline solution to a cell count of 10^8 per ml. The tumor cell suspension thus prepared was transplanted by means of a syringe intraperitoneally into 4 week-old male ICR mice at a dose of 0.1 ml. Consequently, the cell count transplanted per mouse was 1×10^7.
The test material as prepared above was intraperitoneally administered at a dose of 0.1 ml. per mouse for 4 days once a day from the next day of the transplantation of mouse sarcoma 180 tumor cells. A group of 6 mice was employed for each concentration of each test material. […] As a control was administered the CMC-containing PBS as described above only in the same way as above. The dose is expressed as weight per kg. bodyweight of mouse.
On the 7th day of transplantation of the tumor cells bodyweight of each mouse was measured (X). Then, ascites was thoroughly drawn from the mouse, followed by measurement of the bodyweight (Y). X-Y is taken as the amount of ascites.
The drawn ascites was then introduced into a hematocrit tube and then centrifuged at 15,000 G for 5 minutes using a hematocrit rotor at a low temperature. There was thus made determination of the ascitocrit value, that is, proportion of the cells present in the ascites which corresponded to the hematocrit value in hematology. The value multiplied by volume of the ascites gives the volume of the cells present in the ascites. This is designated as total packed cell volume (TPCV).
Effect on the tumor was rated ineffective (-) when the TPCV ratio of the treated to the control (T/C) was 100-66%, plus 1 (+) when it was 65-41%, plus 2 (++) when it was 40-11%, and plus 3 (+++) when it was 10-0%.
(§1) The neem extracts produced in the above examples were tested for effects on sarcoma 180 ascites and solid tumors according to the methods described in the aforementioned Tests.

Another experiment deals with sarcoma 180 solid tumor. Put plainly: Effects on sarcoma 180 solid tumor (Test IV). It counts as in vivo, mouse. The settings on record: for Rating / T/C (%): Table IV; for T/C (%): tumor weight ratio. The protocol:
Test materials were prepared in the same manner as in Test III under (1).
A cell suspension containing 1×10^8 cells per ml. was prepared in the same way as in Test III under (2). Four week old-ICR mice was innoculated subcutaneously on the back with 0.1 ml. of the suspension by means of a syringe.
As in Test III under (3), a group of 6 animals was used for each concentration of each test material.
Grown tumor tissue was resected on the […] of the tumor cell transplantation and weighed. An average for the group of 6 animals was taken for the evaluation. The effect was evaluated on the basis of ratio of the average weight for the treated animals to that of the control animals (T/C). […] Ratios (T/C) of 100-71% were rated ineffective (-), of 70-51% plus 1 (+), of 50-21% plus 2 (++), and of 20-0% plus 3 (+++).
as §1

Another experiment concerns mouse L-5178Y cells. Put plainly: Effects on mouse L-5178Y cells (Test II). It counts as cell-based. As to the method:
A medium containing 1×10^5 cells/ml. was prepared using mouse L-5178Y cells cultivated on RPMI-1640 medium containing 10% fetal bovine serum for 3 days. The medium was placed in a 96-well U-type microplate in an amount of 50 μl. per well.
A portion of the test material, which was one of the extracts according to the invention described in the above examples, was dissolved in the medium to a final concentration in the medium as shown in Table II below. The amount of the solution per well was 50 μl. The test material thus prepared was incubated in a carbon-dioxide incubator at 37° C. for 2 days. After completion of the incubation, the cells were collected and counted well by well, and the cell counts were compared with cell count of control which contained no test material. The cell count of control was approximately 8.6×10^5 /ml. In order to confirm the effects of the test materials, the same test was done with mitomycin C (MMC) or bleomycin (BLM). In the table below, T/C represents the ratio of count of the cells treated with the test material to that with no test material added. ID50 is the concentration of the test material required for decreasing concentration of the cells to 1/2 that of the control.

[2] abbreviates: dose 0.1 μg./kg. (so in the source).
The mark [3] stands for this setting: dose 33 μg./kg. (so in the source).
Where [4] appears, read: dose 20 μg./kg. (so in the source).
[5] abbreviates: dose 0.5 μg./kg. (so in the source).
The mark [6] stands for this setting: dose 1.5 μg./kg. (so in the source).
The mark [7] stands for this setting: Tables V/VII, mice, 1.5 mg./kg.
[8] abbreviates: dose 10 μg./kg. (so in the source).

In the case of `Cc1c2oc3c(C)ccc(C(=O)N[C@@H]4C(=O)N[C@H](C(C)C)C(=O)N5CCC[C@H]5C(=O)N(C)CC(=O)N(C)[C@@H](C(C)C)C(=O)O[C@@H]4C)c3nc-2c(C(=O)N[C@@H]2C(=O)N[C@H](C(C)C)C(=O)N3CCC[C@H]3C(=O)N(C)CC(=O)N(C)[C@@H](C(C)C)C(=O)O[C@@H]2C)c(N)c1=O` [ACD, actinomycin D] (I: T[dV]P[Sar][NMeV] / II: T[dV]P[Sar][NMeV]; ester I:1-I:C, II:1-II:C; linker I:N-II:N via Actinocin(9to1)), the Rating result was “+++ (plus 3 (+++) when it was 10-0%)” in experiment [1] (setting [2]) and “- (Ratios (T/C) of 100-71% were rated ineffective (-))” in the experiment with sarcoma 180 solid tumor (dose 0.1 mg./kg.). The “T/C (%)” value in experiment [1] (setting [2]) stood at 0%; in the experiment on sarcoma 180 solid tumor (dose 0.1 mg./kg.), 102.4%.

In the case of `O=P1(N(CCCl)CCCl)NCCCO1` (stereo not drawn) [CYP, cyclophosphamide], in experiment [1] (setting [3]), the Rating entry is listed as “+++ (plus 3 (+++) when it was 10-0%)” and the “T/C (%)” value amounted to 0%. For the same compound, in the experiment on sarcoma 180 solid tumor (dose 33 mg./kg.), the Rating result is on record as “+++ (of 20-0% plus 3 (+++))” and the “T/C (%)” value is recorded as 0%.

As for `O=c1[nH]cc(F)c(=O)[nH]1` [Example 5-Fu, 5-fluorouracil], in experiment [1] (setting [4]), the Rating result is given as “+++ (plus 3 (+++) when it was 10-0%)” and the “T/C (%)” value is 0%. In addition, in the experiment on sarcoma 180 solid tumor (dose 20 mg./kg.), the Rating result is given as “+ (of 70-51% plus 1 (+))” and the “T/C (%)” value stood at 47.8%.

For `CO[C@@]12[C@H](COC(N)=O)C3=C(C(=O)C(C)=C(N)C3=O)N1C[C@@H]1N[C@@H]12` [MMC, mitomycin C], in experiment [1] (setting [5]), the Rating entry is recorded as “+++ (plus 3 (+++) when it was 10-0%)” and the “T/C (%)” value is on record as 0%. Also, in experiment [1] (setting [6]), the Rating entry is “+++ (plus 3 (+++) when it was 10-0%)” and the “T/C (%)” value is listed as 0%. Further, in experiment [1] (setting [7]), the “Ascites tumor Rating” value is “+++ (plus 3 (+++) when it was 10-0%)” and the “Ascites tumor T/C” value was 0. In the experiment on sarcoma 180 solid tumor (dose 0.5 mg./kg.), the Rating result is “- (Ratios (T/C) of 100-71% were rated ineffective (-))” and the “T/C (%)” value turned out to be 71.0%. In the experiment with sarcoma 180 solid tumor (dose 1.5 mg./kg.), the Rating result is given as “++ (of 50-21% plus 2 (++))” and the “T/C (%)” value is reported as 32.5%. Besides, in the experiment with sarcoma 180 solid tumor (setting [7]), the “Solid tumor Rating” value is reported as “++ (of 50-21% plus 2 (++))” and the “Solid tumor T/C” value came out at 38.9. In addition, the IC50 in the experiment on mouse L-5178Y cells (Mus musculus, L5178Y, 48 h, read-out: ID50) amounted to 0.09 µg/mL (≈ 0.269 µM).

Turning to bleomycin [BLM], the Rating entry in experiment [1] (setting [8]) is “+++ (plus 3 (+++) when it was 10-0%)”; in the experiment on sarcoma 180 solid tumor (dose 10 mg./kg.), “++ (of 50-21% plus 2 (++))”. The figures for the “T/C (%)” value (in experiment [1] (setting [8]); with sarcoma 180 solid tumor (dose 10 mg./kg.)) were 0% and 43.5%, respectively. For the same compound, the ID50 in the experiment on mouse L-5178Y cells (37° C., 2 days) came to 7.8 µg/mL.

Source of the values: patent US4537774A, “Hot-water extracts of neem bark” (priority 1980, dated 1985).
